Experimental data reported in patent US6368788B1 (priority 1987, dated 2002).

Tests used:
[1] = system: acute respiratory infections; test: Prophylaxis of respiratory infection in athletes in training, intranasal L-Glu-L-Trp; assay type: in vivo, human; conditions: for B-Lymphocytes / B-Lymphocytes % Normal Value / B-Lymphocytes (%) / Blasts w/Con-A / Blasts w/PHA / C3 / Eosinophils / Eosinophils (%) / Eosinophils, % Normal Value / Granulocyte Cationic Proteins / IgA / IgA % Normal Value / IgG / IgG % Normal Value / IgM / IgM % Normal Value / Leukocytes / Leukocytes % Normal Value / Leukocytes, Ratio Post-Treat/Pre-Treat Value / Lymphocytes / Lymphocytes % Normal Value / Lymphocytes, % / Monocytes / Monocytes, % / Monocytes, % Normal Value / Neutrophils / Neutrophils, % / Neutrophils, % Normal Value / Phagocytosis (yeast) / Salivary IgM / Salivary Lysozyme / Salivary Secretory IgA / Serum Lysozyme / Serum β-Lysin / T-Lymphocytes / T-Lymphocytes % Normal Value / T-Lymphocytes (%) / T-helper (CD4+) / T-helper (CD4+), % / T-helper (CD4+), % Normal Value / T-suppressor (CD8+) / T-suppressor (CD8+), % / T-suppressor (CD8+), % Normal Value / Total Salivary IgA: After L-Glu-L-Trp
Transfusion reactions = test: Transfusion reactions; design: species or system human; conditions: in vivo
Procedure: Seventy-six patients (76) requiring hemotransfusion therapy with allogeneic blood were treated with L-Glu-L-Trp in the post-operative period, starting at day 4-6 post-op. Seventy-two patients (72) in a control group received conventional post-operative treatment. L-Glu-L-Trp treatment was administered as a single daily im dose of 100 μg on each of 5 consecutive days, or alternatively, at a dose of 1 μg/kg delivered on the same schedule by the intranasal route.

## L-Glu-L-Trp
[1]; Athletes
  B-Lymphocytes: 0.29 ± 0.02 ×10^9/L
  B-Lymphocytes % Normal Value: (74%)
  B-Lymphocytes (%): 13.6 ± 0.9 %
  Blasts w/Con-A: 53.4 ± 3.9%
  Blasts w/PHA: 42.5 ± 2.5 %
  C3: 0.8 ± 0.02 g/L
  Eosinophils: 0.23 ± 0.03 ×10^9/L
  Eosinophils (%): 4.2 ± 0.6%
  Eosinophils, % Normal Value: (96%)
  Granulocyte Cationic Proteins: 1.1 ± 0.04
  IgA: 1.8 ± 0.1 mg/mL
  IgA % Normal Value: (138%)
  IgG: 10.2 ± 0.6 mg/mL
  IgG % Normal Value: (84%)
  IgM: 1.1 ± 0.07 mg/mL
  IgM % Normal Value: (100%)
  Leukocytes: 6.1 ± 0.2 ×10^9/L
  Leukocytes % Normal Value: (109%)
  Leukocytes, Ratio Post-Treat/Pre-Treat Value: (1.09)
  Lymphocytes: 2.22 ± 0.1 ×10^9/L
  Lymphocytes % Normal Value: (104%)
  Lymphocytes, %: 34.9 ± 4.7%
  Monocytes: 0.59 ± 0.05 ×10^9/L
  Monocytes, %: 9.4 ± 0.5%
  Monocytes, % Normal Value: (137%)
  Neutrophils: 3.01 ± 0.2 ×10^9/L
  Neutrophils, %: 49.0 ± 1.5%
  Neutrophils, % Normal Value: (115%)
  Phagocytosis (yeast): 73.3 ± 1.5
  Salivary IgM: 0.65 g/L
  Salivary Lysozyme: 68.7 ± 1.3 %
  Salivary Secretory IgA: 0.056 ± 0.004 g/L
  Serum Lysozyme: 60.2 ± 1.6%
  Serum β-Lysin: 57.6 ± 3.2 %
  T-Lymphocytes: 1.55 ± 0.08 ×10^9/L
  T-Lymphocytes % Normal Value: (108%)
  T-Lymphocytes (%): 70.8 ± 1.4 %
  T-helper (CD4+): 1.25 ± 0.07 ×10^9/L
  T-helper (CD4+), %: 56.1 ± 1.3 %
  T-helper (CD4+), % Normal Value: (112%)
  T-suppressor (CD8+): 0.12 ± 0.02 ×10^9/L
  T-suppressor (CD8+), %: 5.9 ± 0.7%
  T-suppressor (CD8+), % Normal Value: (86%)
  Total Salivary IgA: 0.55 ± 0.05 g/L
[1]; Controls
  B-Lymphocytes: 0.41 ± 0.05 ×10^9/L
  B-Lymphocytes % Normal Value: (85%)
  B-Lymphocytes (%): 20.1 ± 1.5%
  Blasts w/Con-A: 66.8 ± 4.0 %
  Blasts w/PHA: 34.1 ± 3.1%
  C3: 0.7 ± 0.03 g/L
  Eosinophils: 0.22 ± 0.07 ×10^9/L
  Eosinophils (%): 4.0 ± 0.8%
  Eosinophils, % Normal Value: (85%)
  Granulocyte Cationic Proteins: 1.22 ± 0.1
  IgA: 1.8 ± 0.2 mg/mL
  IgA % Normal Value: (100%)
  IgG: 12.6 ± 0.7 mg/mL
  IgG % Normal Value: (104%)
  IgM: 1.0 ± 0.02 mg/mL
  IgM % Normal Value: (77%)
  Leukocytes: 5.6 ± 0.4 ×10^9/L
  Leukocytes % Normal Value: (97%)
  Leukocytes, Ratio Post-Treat/Pre-Treat Value: (0.85)
  Lymphocytes: 2.08 ± 0.2 ×10^9/L
  Lymphocytes % Normal Value: (99%)
  Lymphocytes, %: 37.8 ± 2.9%
  Monocytes: 0.58 ± 0.07 ×10^9/L
  Monocytes, %: 10.6 ± 1.2%
  Monocytes, % Normal Value: (88%)
  Neutrophils: 2.67 ± 0.3 ×10^9/L
  Neutrophils, %: 47.5 ± 2.9%
  Neutrophils, % Normal Value: (75%)
  Phagocytosis (yeast): 75.0 ± 1.7
  Salivary IgM: 0.73 g/L
  Salivary Lysozyme: 63.5 ± 3.0%
  Salivary Secretory IgA: 0.066 ± 0.009 g/L
  Serum Lysozyme: 50.6 ± 1.4 %
  Serum β-Lysin: 46.8 ± 5.4%
  T-Lymphocytes: 1.56 ± 0.1 ×10^9/L
  T-Lymphocytes % Normal Value: (108%)
  T-Lymphocytes (%): 73.9 ± 1.7%
  T-helper (CD4+): 1.36 ± 0.2 ×10^9/L
  T-helper (CD4+), %: 65.6 ± 2.0 %
  T-helper (CD4+), % Normal Value: (136%)
  T-suppressor (CD8+): 0.08 ± 0.05 ×10^9/L
  T-suppressor (CD8+), %: 4.8 ± 1.0%
  T-suppressor (CD8+), % Normal Value: (100%)
  Total Salivary IgA: 0.48 ± 0.1 g/L
[1]; athletes treated, two month period
  Incidence of infection: 24.7%
[1]; vs controls
  Reduction of the rate of upper respiratory infections and illness: 4 fold
Transfusion reactions
  Clinical outcome: None of L-Glu-L-Trp treated patients showed clinical manifestations of allogeneic hemotransfusion reactions
